Measured values taken from patent publication EP0232423A1, “CIRCULATION IMPROVING AGENT” (GRELAN PHARMACEUTICAL CO., LTD., priority 1985, dated 1987).

Legend:
ddY male mice [1] = assay: Ameliorative activity against damage of cerebral hypoxia (reduced pressure); format: in vivo; conditions: i.p.; 30 mg/kg compound (I) and ifenprodil tartrate, 16 mg/kg phentolamine
Protocol: Thirty mg/kg each of compound (I) (lactate) and ifenprodil tartrate and 16 mg/kg of phentolamine, which is an a-adrenoceptor blocker, were intraperitoneally administered to ddY male mice, respectively. […] Time from start of reduction of pressure until stop of respiration in the mice was measured. The control group was drug-untreated.

male mice [2] = assay: Serum total cholesterol and β-lipoprotein in mice fed high cholesterol food; format: in vivo; conditions: 200 mg/kg oral on 6th and 7th day, high cholesterol food 7 days, three male mice
Protocol: Three male mice were fed high cholesterol food for 7 days and 200 mg/kg of compound (I) was orally administered on the 6th day and the 7th day. After a fast over night from the 7th day, measurements of the total cholesterol in serum (Abell et al, "Standard Method of Clinical Chemistry", vol. 2, page 26, […], published by Academic Press; Kanai et al, "[…]", vol. 7, page 64, 1978, published by Kanehara Shuppan) and the amount of β-lipoprotein (Fried-Hoeflmayer, Klin. Wschr., vol. 41, page 246, 1963; Kanai et al, "Rinsho Kensaho Teiyo", vol. 7, page 79, 1978, published by Kanehara Shuppan) were conducted. The control group was compound (I)-untreated.

ddY male mice [3] = assay: Thromboembolic respiratory depression induced by ADP; format: in vivo; conditions: 30 mg/kg oral, ADP 40 mg/kg i.v., Compound (I) = erythro form
Protocol: The degree of formation of platelet thrombi in the pulmonary vessels of mice induced by intravenous administration of ADP can be measured based on the decrease in the respiratory rate. The anti-platelet thrombotic action of test drugs can be evaluated by using this decrease in the respiratory rate as a standard. […] Relative respiratory rate (%) was calculated according to the following formula. [formula] (cf. "Thrombosis Research", Vol. 35, Page 311, 1984)

α1-adrenoceptor = assay: Antagonism of phenylephrine (α1-agonist) contraction in saphenous vein; format: cell-based, Mongrel dogs; conditions: compared by pA2 value
From the text: (§1) In this experiment, phenylephrine and clonidine were used as al-agonist and a2-agonist, respectively, and these agonists were cumulatively applied to obtain a dose-response curve.

Acute toxicity (LD50) = conditions: mouse, in vivo, mice
mice = assay: Protective action on death caused by endotoxin shock; format: in vivo; conditions: for Number of survival after administration of endotoxin: of 15 (Compound (I)) or 14 (ifenprodil) animals
From the text: Compound (I) and ifenprodil tartrate were orally administered to mice and the protective action on death due to endotoxin shock was examined in accordance with a known method (Folia pharmacol. japon, vol. 86, page 17, 1985). The control group was drug-untreated.

platelets of rabbit = assay: Fluidity of platelet membrane (fluorescence polarization); format: cell-based; design: Fluorescence polarization: unit not given here; conditions: fluidity increases as value decreases
From the text: The activity of compound (I) (lactate) and ifenprodil tartrate against the fluidity of platelet membrane was examined according to a known method (Biochimica et Biophysica Acta, vol. 798, page 210, 1984) using platelets of rabbit and using n-butyl alcohol as a positive control.

male mice [4] = assay: Isoproterenol-induced tachycardia; format: in vivo; conditions: 25 mg/kg oral, 30 minutes before 0.01 mg/kg isoproterenol i.v.; three male mice
Protocol: 25 mg/kg of compound (I) was orally administered to three male mice. After 30 minutes from administration, 0.01 mg/kg of isoproterenol, which is a β-agonist, was intravenously administered, and the effect of compound (I) on tachycardia induced by isoproterenol was observed. The control group was compound (I) - untreated.

α2-adrenoceptor = assay: Antagonism of clonidine (α2-agonist) contraction in saphenous vein; format: cell-based, Mongrel dogs; conditions: clonidine
From the text: as §1

CC(C(O)c1ccc(OCc2ccccc2)cc1)N1CCC(Cc2ccccc2)CC1 (stereo not drawn) [Compound (I), 2-(4-benzylpiperidino)-l-(4-benzyloxyphenyl)propan-l-ol]
effect on survival time (cerebral hypoxia) (ddY male mice [1]): markedly prolongs survival time | Reduction % as compared with control group Total cholesterol (male mice [2]; serum): 8% | Reduction % as compared with control group β-lipoprotein (male mice [2]): 18% | Relative respiratory rate (%) (ddY male mice [3]; 1/3 hr after administration): 53.1 ±11.7 (n=7) % | Relative respiratory rate (%) (ddY male mice [3]; 1 hr after administration): 51.2 ±5.6 (n=10) % | Relative respiratory rate (%) (ddY male mice [3]; 2 hr after administration): 52.8 ±7.4 (n=10) % | Relative respiratory rate (%) (ddY male mice [3]; 3 hr after administration): 49.0 ±8.4(*) (n=9) % | Relative respiratory rate (%) (ddY male mice [3]; 5 hr after administration): 41.9 ±11.5 (n=8) % | competitive antagonism on the α1-agonist relative to that of ifenprodil (α1-adrenoceptor): about 1/15 | competitive antagonism on the α1-agonist relative to that of prazosin (α1-adrenoceptor): about 1/8 | LD50 (Acute toxicity (LD50); iv, venous injection): > 70 mg/kg | LD50 (Acute toxicity (LD50); oral): > 1200 mg/kg | Number of survival after administration of endotoxin (mice; 70 mg/kg oral, 18 hr): 12 | Number of survival after administration of endotoxin (mice; 70 mg/kg oral, 20 hr): 9 | Number of survival after administration of endotoxin (mice; 70 mg/kg oral, 22 hr): 8 | Number of survival after administration of endotoxin (mice; 70 mg/kg oral, 24 hr): 5 | Number of survival after administration of endotoxin (mice; 70 mg/kg oral, 48 hr): 1 | Number of survival after administration of endotoxin (mice; 200 mg/kg oral, 18 hr): 13 | Number of survival after administration of endotoxin (mice; 200 mg/kg oral, 20 hr): 13 | Number of survival after administration of endotoxin (mice; 200 mg/kg oral, 22 hr): 10 | Number of survival after administration of endotoxin (mice; 200 mg/kg oral, 24 hr): 7 | Number of survival after administration of endotoxin (mice; 200 mg/kg oral, 48 hr): 5 | protective action on the death (endotoxin shock) (mice; oral, mice, compound (I) at 200 mg/kg): remarkable protective action on the death | Fluorescence polarization (platelets of rabbit; 1 µM): 2±4 | Fluorescence polarization (platelets of rabbit; 10 µM): 0±8 | Fluorescence polarization (platelets of rabbit; 30 µM): -2±0 | Fluorescence polarization (platelets of rabbit; 100 µM): -22±7 | Inhibition % of isoproterenol-induced tachycardia (male mice [4]): 23% | antagonism on the α2-agonist (α2-adrenoceptor; concentration of 10^-5 M): non- competitive antagonism | antagonism on the α2-agonist (α2-adrenoceptor; concentration of 10^-6 M): No competitive antagonism is recognized
